Reference: ChEMBL document CHEMBL1201862, “PubChem BioAssay data set” (2004)
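Protocol summary: plate cells (96-well), add compound at 5 concentrations, incubate 48 h, interpolate endpoints linearly. GI50 = concentration required for 50% inhibition of growth.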 Active and inactive are the calls of the source. Rule as the data show it: active = GI50 up to about 1.1 µM and inactive = higher.

Experiments:
Experiment in all cases: NCI tumour cell line growth inhibition, 48 h
K562 = tested on: K562
CCRF-CEM = tested on: CCRF-CEM
KM12 = tested on: KM12
U-251 = tested on: U-251
MDA-MB-435 = tested on: MDA-MB-435
RXF 393 = tested on: RXF 393
RPMI-8226 = tested on: RPMI-8226
OVCAR-8 = tested on: OVCAR-8
MOLT-4 = tested on: MOLT-4
ACHN = tested on: ACHN
SN12C = tested on: SN12C
A549 = tested on: A549
HCT-15 = tested on: HCT-15
786-0 = tested on: 786-0
SNB-75 = tested on: SNB-75
NCI-H23 = tested on: NCI-H23
UO-31 = tested on: UO-31
NCI-H522 = tested on: NCI-H522
OVCAR-4 = tested on: OVCAR-4
SW-620 = tested on: SW-620
UACC-257 = tested on: UACC-257
SF-295 = tested on: SF-295
DU-145 = tested on: DU-145
SNB-19 = tested on: SNB-19
Hs-578T = tested on: Hs-578T
M14 = tested on: M14
MCF7 = tested on: MCF7
HCT-116 = tested on: HCT-116
BT-549 = tested on: BT-549
HOP-92 = tested on: HOP-92
CAKI-1 = tested on: CAKI-1
SK-MEL-28 = tested on: SK-MEL-28
SF-539 = tested on: SF-539
PC-3 = tested on: PC-3
MDA-MB-231 = tested on: MDA-MB-231
TK-10 = tested on: TK-10
NCI-H460 = tested on: NCI-H460
IGROV-1 = tested on: IGROV-1
HOP-62 = tested on: HOP-62
NCI/ADR-RES = tested on: NCI/ADR-RES
COLO 205 = tested on: COLO 205
A498 = tested on: A498
SK-OV-3 = tested on: SK-OV-3
SK-MEL-5 = tested on: SK-MEL-5
EKVX = tested on: EKVX
LOX IMVI = tested on: LOX IMVI
HT-29 = tested on: HT-29
SK-MEL-2 = tested on: SK-MEL-2
HCC 2998 = tested on: HCC 2998
OVCAR-5 = tested on: OVCAR-5
T47D = tested on: T47D
UACC-62 = tested on: UACC-62
NCI-H226 = tested on: NCI-H226
OVCAR-3 = tested on: OVCAR-3
SF-268 = tested on: SF-268
SR = tested on: SR
HL-60 = tested on: HL-60

SMILES: COc1ccc(OC)c(C(Cc2ccnc3ccccc23)Cc2ccnc3ccccc23)c1
- GI50 (K562): 4.53 µM (inactive)
- GI50 (CCRF-CEM): 8.57 µM (inactive)
- GI50 (KM12): 7.29 µM (inactive)
- GI50 (U-251): > 10 µM (inactive)
- GI50 (MDA-MB-435): 0.56 µM (active)
- GI50 (RXF 393): > 10 µM (inactive)
- GI50 (RPMI-8226): 5.18 µM (inactive)
- GI50 (OVCAR-8): > 10 µM (inactive)
- GI50 (MOLT-4): 5.79 µM (inactive)
- GI50 (ACHN): > 10 µM (inactive)
- GI50 (SN12C): > 10 µM (inactive)
- GI50 (A549): > 10 µM (inactive)
- GI50 (HCT-15): 6.44 µM
- GI50 (786-0): > 10 µM (inactive)
- GI50 (SNB-75): 6.11 µM (inactive)
- GI50 (NCI-H23): > 10 µM (inactive)
- GI50 (UO-31): 6.68 µM (inactive)
- GI50 (NCI-H522): 6.32 µM (inactive)
- GI50 (OVCAR-4): 6.11 µM (inactive)
- GI50 (SW-620): > 10 µM (inactive)
- GI50 (UACC-257): > 10 µM (inactive)
- GI50 (SF-295): 6.71 µM (inactive)
- GI50 (DU-145): > 10 µM (inactive)
- GI50 (SNB-19): > 10 µM (inactive)
- GI50 (Hs-578T): 8.63 µM (inactive)
- GI50 (M14): > 10 µM (inactive)
- GI50 (MCF7): 4.93 µM (inactive)
- GI50 (HCT-116): 0.857 µM (active)
- GI50 (BT-549): 4.09 µM (inactive)
- GI50 (HOP-92): 4.09 µM (inactive)
- GI50 (CAKI-1): > 10 µM (inactive)
- GI50 (SK-MEL-28): > 10 µM (inactive)
- GI50 (SF-539): > 10 µM (inactive)
- GI50 (PC-3): 5.28 µM (inactive)
- GI50 (MDA-MB-231): > 10 µM (inactive)
- GI50 (TK-10): > 10 µM (inactive)
- GI50 (NCI-H460): 5.47 µM (inactive)
- GI50 (IGROV-1): > 10 µM (inactive)
- GI50 (HOP-62): > 10 µM (inactive)
- GI50 (NCI/ADR-RES): 8.39 µM (inactive)
- GI50 (COLO 205): 8.04 µM (inactive)
- GI50 (A498): > 10 µM (inactive)
- GI50 (SK-OV-3): > 10 µM (inactive)
- GI50 (SK-MEL-5): 3.66 µM (inactive)
- GI50 (EKVX): 5.15 µM (inactive)
- GI50 (LOX IMVI): 5.36 µM (inactive)
- GI50 (HT-29): 6.5 µM (inactive)
- GI50 (SK-MEL-2): 9.73 µM (inactive)
- GI50 (HCC 2998): > 10 µM (inactive)
- GI50 (OVCAR-5): > 10 µM (inactive)
- GI50 (T47D): 6.25 µM (inactive)
- GI50 (UACC-62): > 10 µM (inactive)
- GI50 (NCI-H226): 9.57 µM (inactive)
- GI50 (OVCAR-3): > 10 µM (inactive)
- GI50 (SF-268): > 10 µM (inactive)

SMILES: O=S(=O)(Oc1ccc2oc3ccccc3c2c1-c1c(OS(=O)(=O)C(F)(F)F)ccc2oc3ccccc3c12)C(F)(F)F
- GI50 (K562): > 100 µM (inactive)
- GI50 (CCRF-CEM): > 100 µM (inactive)
- GI50 (KM12): > 100 µM (inactive)
- GI50 (U-251): > 100 µM (inactive)
- GI50 (MDA-MB-435): > 100 µM (inactive)
- GI50 (RXF 393): > 100 µM (inactive)
- GI50 (RPMI-8226): > 100 µM (inactive)
- GI50 (OVCAR-8): > 100 µM (inactive)
- GI50 (MOLT-4): > 100 µM (inactive)
- GI50 (ACHN): > 100 µM (inactive)
- GI50 (A549): > 100 µM (inactive)
- GI50 (HCT-15): > 100 µM
- GI50 (786-0): > 100 µM (inactive)
- GI50 (SR): > 100 µM (inactive)
- GI50 (NCI-H23): > 100 µM (inactive)
- GI50 (UO-31): > 100 µM (inactive)
- GI50 (NCI-H522): > 100 µM (inactive)
- GI50 (OVCAR-4): > 100 µM (inactive)
- GI50 (SW-620): > 100 µM (inactive)
- GI50 (UACC-257): > 100 µM (inactive)
- GI50 (SF-295): > 100 µM (inactive)
- GI50 (DU-145): > 100 µM (inactive)
- GI50 (SNB-19): > 100 µM (inactive)
- GI50 (Hs-578T): > 100 µM (inactive)
- GI50 (M14): > 100 µM (inactive)
- GI50 (MCF7): > 100 µM (inactive)
- GI50 (HCT-116): > 100 µM (inactive)
- GI50 (BT-549): > 100 µM (inactive)
- GI50 (HOP-92): > 100 µM (inactive)
- GI50 (CAKI-1): > 100 µM (inactive)
- GI50 (SK-MEL-28): > 100 µM (inactive)
- GI50 (SF-539): > 100 µM (inactive)
- GI50 (PC-3): > 100 µM (inactive)
- GI50 (MDA-MB-231): > 100 µM (inactive)
- GI50 (TK-10): > 100 µM (inactive)
- GI50 (HL-60): 8.28 µM (inactive)
- GI50 (NCI-H460): > 100 µM (inactive)
- GI50 (IGROV-1): > 100 µM (inactive)
- GI50 (HOP-62): > 100 µM (inactive)
- GI50 (NCI/ADR-RES): > 100 µM (inactive)
- GI50 (COLO 205): > 92.3 µM (inactive)
- GI50 (A498): > 100 µM (inactive)
- GI50 (SK-OV-3): > 100 µM (inactive)
- GI50 (SK-MEL-5): > 100 µM (inactive)
- GI50 (EKVX): > 100 µM (inactive)
- GI50 (LOX IMVI): > 100 µM (inactive)
- GI50 (HT-29): > 100 µM (inactive)
- GI50 (SK-MEL-2): > 100 µM (inactive)
- GI50 (HCC 2998): > 100 µM (inactive)
- GI50 (OVCAR-5): > 100 µM (inactive)
- GI50 (T47D): > 100 µM (inactive)
- GI50 (UACC-62): > 100 µM (inactive)
- GI50 (NCI-H226): > 100 µM (inactive)
- GI50 (OVCAR-3): > 100 µM (inactive)
- GI50 (SF-268): > 100 µM (inactive)
